Measurements from PubChem BioAssay (NCI).
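Growth conditions: 96-well plates. Treatment: test compound, 48 hours, 5 concentrations. Analysis: linear interpolation between bracketing concentrations; unreached endpoints set to highest concentration. GI50: concentration for 50% inhibition of growth. TGI is the concentration that stops growth completely.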

Legend:
Test in all cases: NCI anticancer screen, dose series, 48 h
SK-MEL-5 melanoma = system: SK-MEL-5 melanoma
ACHN renal = system: ACHN renal
UO-31 renal = system: UO-31 renal
HCC-2998 colon = system: HCC-2998 colon
786-0 renal = system: 786-0 renal
CCRF-CEM leukemia = system: CCRF-CEM leukemia
MALME-3M melanoma = system: MALME-3M melanoma
OVCAR-5 ovarian = system: OVCAR-5 ovarian
RXF 393 renal = system: RXF 393 renal
NCI-H460 lung = system: NCI-H460 lung

Structure (SMILES) | GI50 (SK-MEL-5 melanoma) | TGI (SK-MEL-5 melanoma) | GI50 (ACHN renal) | TGI (ACHN renal) | GI50 (UO-31 renal) | TGI (UO-31 renal) | GI50 (HCC-2998 colon) | TGI (HCC-2998 colon) | GI50 (786-0 renal) | TGI (786-0 renal) | GI50 (CCRF-CEM leukemia) | TGI (CCRF-CEM leukemia) | GI50 (MALME-3M melanoma) | TGI (MALME-3M melanoma) | GI50 (OVCAR-5 ovarian) | TGI (OVCAR-5 ovarian) | GI50 (RXF 393 renal) | TGI (RXF 393 renal) | GI50 (NCI-H460 lung) | TGI (NCI-H460 lung)
O=S(=O)(NCCNc1cc(-c2cn(-c3ccccc3)nc2-c2cccc(O)c2)ccn1)c1ccc(Br)cc1 | 1640 nM | 3.03 µM | 3330 nM | 15.2 µM | 2190 nM | 6.96 µM | 2140 nM | 4.1 µM | 2170 nM | 7.78 µM | 2100 nM | 6.06 µM | 2080 nM | 5.08 µM | 2250 nM | 5.97 µM | 2380 nM | 6.96 µM | 2390 nM | 5.76 µM
N/C(=N\N=C\c1ccc(O)c(O)c1)NO |  | > 100 µM |  | > 100 µM |  | > 100 µM |  | > 100 µM |  | > 100 µM |  | > 100 µM |  | > 100 µM |  | > 100 µM |  | > 100 µM |  | > 100 µM
CNC(=S)N(C1CCCCC1)C1CCCCC1 |  | > 100 µM |  | > 100 µM |  | > 100 µM |  | > 100 µM |  | > 100 µM |  | > 100 µM |  | > 100 µM |  | > 100 µM |  | > 100 µM |  | > 100 µM
CCOC(=O)NC(=O)c1cn(C2OC(COC(=O)CCCCCCCCC(=O)OCC3OC(n4cc(C(=O)NC(=O)OCC)c(=O)[nH]c4=O)C4OC(C)(C)OC34)C3OC(C)(C)OC32)c(=O)[nH]c1=O (centres undefined) |  | > 100 µM |  | > 100 µM |  | > 100 µM |  | > 100 µM |  | > 100 µM |  | > 100 µM |  | > 100 µM |  | > 100 µM |  | > 100 µM |  | > 100 µM
CC(C)=CCC/C(C)=C/CC/C(C)=C/C1CCC(=O)C1(C)C (centres undefined) |  | 29.3 µM |  | 30.1 µM |  | 31.7 µM |  | 38.2 µM |  | 32.2 µM |  | 35.4 µM |  | 37.5 µM |  | 39.7 µM |  | 37.5 µM |  | 32.6 µM
C[C@H](C(O)CC(=O)C(C)(C)O)[C@H]1CC[C@@]2(C)[C@@H]3CC[C@H]4C(C)(C)[C@@H](OC5OC(COC6OC(CO)C(O)C(O)C6O)C(O)C(O)C5O)CC[C@]4(C)C3=CC[C@]12C (some centres undefined) |  | > 100 µM |  | > 100 µM |  | > 100 µM |  | > 100 µM |  | > 100 µM |  | > 100 µM |  | > 100 µM |  | > 100 µM |  | > 100 µM |  | > 100 µM
COc1c(Cl)[c]([Hg][O]C(C)=O)c(NCC(C)=O)c(OC)[c]1[Hg][O]C(C)=O | 11100 nM | 26.1 µM | 17800 nM | 34.5 µM | 22000 nM | 40 µM | 16900 nM | 39.1 µM | 3440 nM | 12.9 µM | 10300 nM | 34.4 µM | 2700 nM | 7.89 µM | 38700 nM | 90.9 µM | 14400 nM | 30.4 µM | 33200 nM | > 100 µM
COC1C(O)CC(OC2CC(OC3CC(O[C@@H]4C(=O)c5c(cc6cc(OC7CC(OC8CC(O)C(O)C(C)O8)C(O)C(C)O7)c(C)c(O)c6c5O)CC4[C@H](OC)[C@@H](O)C(C)=O)OC(C)C3O)OC(C)C2O)OC1C (some centres undefined) | 9.93 nM | 0.0392 µM | 25 nM |  | 31.5 nM | 11.3 µM | 3.49 nM | 0.0258 µM | 21.9 nM | > 33.3 µM | 23.3 nM | > 33.3 µM | 18.1 nM | 1.28 µM | 30.9 nM | > 33.3 µM | 15.2 nM | 0.364 µM | 6.73 nM | > 33.3 µM
Cc1nc(-n2nc(-c3ccccc3)cc2-c2ccccc2)sc1C(=O)/C=C/c1ccc(Cl)cc1 |  | 31 µM |  | > 100 µM |  | 21.1 µM |  | 29.9 µM |  | 27.4 µM |  | 78.1 µM |  | 52.5 µM |  | > 100 µM |  | 28.1 µM |  | 76.5 µM
CCN(CC)CCC(=O)N1C/C(=C/c2ccccc2)C(=O)/C(=C\c2ccccc2)C1 |  | 3.98 µM |  | 7.63 µM |  | 3.78 µM |  | 1.94 µM |  | 9.78 µM |  | 0.947 µM |  | 7.36 µM |  | 9.76 µM |  | 2.99 µM |  | 11.4 µM
CCN(CC)c1ccc(/C=N/NC(=O)c2ccccc2Nc2ccnc(C(F)(F)F)c2)c(O)c1 | 143 nM | 0.723 µM | 83.4 nM | > 24.6 µM | 112 nM | 5.76 µM | 192 nM | > 100 µM | 183 nM | 0.984 µM | 55 nM | 1.35 µM | 331 nM | 5.17 µM | 377 nM | > 100 µM | 226 nM | > 24.6 µM | 68.1 nM | > 23.4 µM
C=C(C)[C@@H]1CC[C@]2(CN)CC[C@]3(C)[C@H](CC[C@@H]4[C@@]5(C)CCC(N)[C@@](C)(CO)[C@@H]5CC[C@]43C)[C@@H]12 (some centres undefined) | 1720 nM | 3.16 µM | 1860 nM | 3.29 µM | 1600 nM | 2.96 µM | 1770 nM | 3.24 µM | 1640 nM | 3.11 µM | 1710 nM | 3.65 µM | 1860 nM | 3.38 µM | 1730 nM | 3.15 µM | 1280 nM | 2.59 µM | 1870 nM | 3.51 µM
CCCC(=O)Nc1c(I)cc(I)c(CC(CC)C(=O)O)c1I (centres undefined) | > 100000 nM | > 100 µM | > 100000 nM | > 100 µM | > 100000 nM | > 100 µM | > 100000 nM | > 100 µM | > 100000 nM | > 100 µM | > 100000 nM | > 100 µM | > 100000 nM | > 100 µM | > 100000 nM | > 100 µM | > 100000 nM | > 100 µM | > 100000 nM | > 100 µM
